Read-outs that look alike come from different tables or passages of the source.
Assays:
[1] = In vivo human metabolism, plasma and urine pharmacokinetics after single oral dose of racemic Compound (I)
Experimental: Plasma samples were collected prior to dosing (within 30 minutes before dosing) and at the following timepoints: 0.5, 1, 1.5, 2, 3, 4, 5, 6, 8, 10, 12, and 24 hours postdose. Urine was also collected. […] The supernatant was diluted with injection solvent and analyzed by HPLC with tandem mass spectrometry (LC/MS/MS). […] The calibration curves were linear over the concentration range between 5.00 ng/mL and 2000 ng/mL with a lower limit of quantification (LLOQ) of 5.00 ng/mL.
Using the above data, the following plasma pharmacokinetic parameters were calculated using validated Phoenix WinNonlin, version 6.3 (Pharsight Corporation, Mountain View, Calif.) and are shown (geometric mean 95% CI) in tables 11, 12, and 13 below.
• Cmax: Maximum observed concentration (μg/mL) • Tmax: Time of occurrence of maximum observed concentration (hr) • AUC0-24: Area under plasma concentration-vs-time curve, from time 0 to 24 hours postdose (μg·hr/mL) • C24: Concentration 24 hours post dose (μg/mL) • t1/2: Apparent terminal half-life (hr)

[2] = Solubility in water; type: physicochemical
[3] = In vitro metabolism, incubations with human liver microsomes; type: in vitro ADME
Experimental: Human liver microsomes (0.5 mg/mL; mixed gender, ultrapooled, BD Biosciences, catalog number 452117) were incubated at 37±1° C. in 0.2 mL (final volume) of incubation mixtures containing potassium phosphate buffer (100 mM, pH7.4), MgCl2 (3 mM), NADPH (1 mM), and the atropisomers (1, 10, or 50 μM) (all experiments performed in duplicate). Stock solutions of atropisomers were prepared with DMSO at 100 mM. The final concentration of DMSO in the incubation was at or less than 0.05%. Reactions were initiated by addition of NADPH solution and terminated at predetermined time point (30 min) by addition of stop reagent (300 μL chilled acetonitrile containing 0.1 μM of 7-hydroxycoumarin as an internal standard). After incubation, microsomal proteins were precipitated by centrifugation at 3300×g for 15 min at 4° C. Supernatant fractions were analyzed by LC-MS/MS.
HPLC mass spectrometer system: An API4000 triple quadrupole mass spectrometer equipped with electrospray ionization ion source was used for quantitation and operated in positive mode. The HPLC system consisted of a CTC Analytics PAL autosampler, an Agilent 1100 series degasser (G1379A), and an Agilent 1100 series binary pump (G1312A). […]
The formation of M3, M3c, M4 and M6 from each atropisomer in liver microsomal and recombinant CYP incubations was determined, based on the peak area ratio of analyte over internal standard (IS)

[4] = Atropisomer interconversion, thermal challenge in organic solvent (acetonitrile); type: physicochemical
Experimental: (§1) The individual atropisomers of Compound (I), atropisomer 1 and atropisomer 2 (elution order from normal-phase chiral chromatography) were exposed to various conditions, including thermal challenge in both organic and aqueous media and exposure to simulated biological conditions, to ascertain whether they readily interconvert.
Samples of each separate atropisomers were held at 60° C. for four days and then analyzed by high performance liquid chromatography (AGMS02 Agilent 1100) on a normal phase amylose-based chiral column (ChiralPak IA-3, 3 μm, 100×4.6 mm, column 244), using isocratic elution and UV detection at 226 nm (see example 1).

[5] = biological target: T1, human URAT1 transporter (Homo sapiens, UniProt Q96S37); assay: HEK293 hURAT1 stable cell-line uric acid uptake assay; type: cell-based; conditions: from IC50 values of table 5
T1 sequence (Q96S37 1-553): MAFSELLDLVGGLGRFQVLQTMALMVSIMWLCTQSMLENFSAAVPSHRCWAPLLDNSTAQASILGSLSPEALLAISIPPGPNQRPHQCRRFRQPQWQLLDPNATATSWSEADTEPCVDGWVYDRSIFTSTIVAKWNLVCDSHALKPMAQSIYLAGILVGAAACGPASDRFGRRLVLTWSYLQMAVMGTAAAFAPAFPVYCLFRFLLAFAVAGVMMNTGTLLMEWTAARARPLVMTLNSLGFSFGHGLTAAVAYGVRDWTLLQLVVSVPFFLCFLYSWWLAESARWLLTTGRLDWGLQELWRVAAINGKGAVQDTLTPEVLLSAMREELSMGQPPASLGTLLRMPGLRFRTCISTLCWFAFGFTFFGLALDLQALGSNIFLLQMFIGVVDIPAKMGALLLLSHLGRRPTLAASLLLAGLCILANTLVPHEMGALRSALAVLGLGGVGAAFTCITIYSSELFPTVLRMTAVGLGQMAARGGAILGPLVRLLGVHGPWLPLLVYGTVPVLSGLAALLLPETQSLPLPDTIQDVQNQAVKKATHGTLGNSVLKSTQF
Excerpt: Generation and Screening of HEK293 Stable Cell Lines—HEK293 human embryonic kidney cells (ATCC #CRL-1573, Manassas, Va.) were propagated in EMEM tissue culture medium as described by ATCC in an atmosphere of 5% CO2 and 95% air. HEK293 cells were transfected with the expression plasmids described above (pCMV6-neo URAT1 or pCMV6-neo OAT4) using Lipofectamine 2000 (Invitrogen, Carlsbad, Calif.), according to the manufacturer's instructions. The lipid/DNA transfection mixture was removed after five hours on the cells and fresh growth medium was added. After another 24 hr the cells were split into 10 cm plates. The next day G418 (Gibco, Carlsbad, Calif.) selection agent was added to the growth medium at a final concentration of 0.5 mg/ml. Fresh G418-containing medium was added every three days until drug-resistant colonies were obtained and also when the majority of mock-transfected cells were dead. […]
HEK293 hURAT 1 Stable Cell-Line Uric Acid Uptake Assay—Cells were seeded onto 96-well poly-D-lysine coated tissue culture plates at a density of 1.25×10^5 cells per well and grown at 37° C. overnight. […] Cells were lysed by adding 150 μl of MicroScint 20 scintillation fluid (PerkinElmer) to each well and radioactivity was counted the following day using a Beckman TopCount plate reader.
Calculation—The IC50 was calculated using Sigmoidal Dose-Response Model using XLFIT(IDBS, Alameda, Calif.).

[6] = Atropisomer interconversion, thermal challenge in aqueous solvent (dilute sodium bicarbonate); type: physicochemical
Experimental: as §1
Atropisomer 1 was dissolved in dilute aqueous sodium bicarbonate solution. Atropisomer 2 was dissolved in dilute aqueous sodium bicarbonate solution. […] Samples of the resulting solutions were exposed to room temperature (rt), 60° C., and 100° C. for four days. After four days, the samples were concentrated to dryness (SpeedVac evaporator—DNA120, property H001630), redissolved in acetonitrile and analyzed by high performance liquid chromatography (AGMS02 Agilent 1100) on a normal phase amylose-based chiral column (ChiralPak IA-3, 3 μm, 100×4.6 mm, column 244), using isocratic elution and UV detection at 226 nm (see example 1). […] Sample chromatograms at t0, 60° C., and 100° C. after four days, are depicted in FIG. 3A, FIG. 3B and FIG. 3C respectively.

[7] = plasma, geometric mean, single oral 400 mg racemic Compound (I), human
[8] = Plasma Concentration (Mean), single oral 400 mg racemic Compound (I), human
[9] = Urine PK Parameters (Geometric mean, CI 95%), single oral 400 mg racemic Compound (I), human

SMILES: O=C(O)CSc1nnc(Br)n1-c1ccc(C2CC2)c2ccccc12 (racemic) [Compound (I), 2-(5-bromo-4-(4-cyclopropylnaphthalen-1-yl)-4H-1,2,4-triazol-3-ylthio)acetic acid]
- concentration at 0.5 h ([1]; male, human, plasma, po, 400 mg, 0.5 hr postdose, single oral 400 mg Compound (I) racemic mixture, adult male subjects): 157 ng/mL
- concentration at 1 h ([1]; male, human, plasma, po, 400 mg, 1 hr postdose, single oral 400 mg Compound (I) racemic mixture, adult male subjects): 3900 ng/mL
- concentration at 1.5 h ([1]; male, human, plasma, po, 400 mg, 1.5 hr postdose, single oral 400 mg Compound (I) racemic mixture, adult male subjects): 7860 ng/mL
- concentration at 2 h ([1]; male, human, plasma, po, 400 mg, 2 hr postdose, single oral 400 mg Compound (I) racemic mixture, adult male subjects): 9380 ng/mL
- concentration at 3 hr ([1]; male, human, plasma, po, 400 mg, 3 hr postdose, single oral 400 mg Compound (I) racemic mixture, adult male subjects): 11400 ng/mL
- concentration at 4 hr ([1]; male, human, plasma, po, 400 mg, 4 hr postdose, single oral 400 mg Compound (I) racemic mixture, adult male subjects): 9080 ng/mL
- concentration at 5 hr ([1]; male, human, plasma, po, 400 mg, 5 hr postdose, single oral 400 mg Compound (I) racemic mixture, adult male subjects): 6980 ng/mL
- concentration at 6 hr ([1]; male, human, plasma, po, 400 mg, 6 hr postdose, single oral 400 mg Compound (I) racemic mixture, adult male subjects): 3810 ng/mL
- concentration at 8 hr ([1]; male, human, plasma, po, 400 mg, 8 hr postdose, single oral 400 mg Compound (I) racemic mixture, adult male subjects): 1530 ng/mL
- concentration at 10 hr ([1]; male, human, plasma, po, 400 mg, 10 hr postdose, single oral 400 mg Compound (I) racemic mixture, adult male subjects): 815 ng/mL
- concentration at 12 hr ([1]; male, human, plasma, po, 400 mg, 12 hr postdose, single oral 400 mg Compound (I) racemic mixture, adult male subjects): 503 ng/mL
- concentration at 24 h ([1]; male, human, plasma, po, 400 mg, 24 hr postdose, single oral 400 mg Compound (I) racemic mixture, adult male subjects): 84 ng/mL
- AUC(0-t) ([1]; male, human, plasma, po, 400 mg, Plasma Concentration (Mean), single oral 400 mg racemic Compound (I), human, read-out: AUC0-24): 54900 ng·h/mL
- Cmax ([1]; male, human, plasma, po, 400 mg, Plasma Concentration (Mean), single oral 400 mg racemic Compound (I), human, read-out: Cmax): 13500 ng/mL
- Cmax ([1]; male, human, plasma, po, 400 mg, plasma, geometric mean, single oral 400 mg racemic Compound (I), human, read-out: Cmax: Maximum observed concentration): 12800 ng/mL
- half-life ([1]; male, human, plasma, po, 400 mg, plasma, geometric mean, single oral 400 mg racemic Compound (I), human, read-out: t1/2: Apparent terminal half-life (converted)): 4.18 h
- concentration at 0 h ([1]; male, human, plasma, po, 400 mg, time 0 hr (prior to dosing), single oral 400 mg Compound (I) racemic mixture, adult male subjects): 0 ng/mL
- Tmax ([1]; male, human, plasma, po, 400 mg, read-out: Tmax: Time of occurrence of maximum observed concentration): 3 h
- AUC0-24: Area under plasma concentration-vs-time curve, from time 0 to 24 hours postdose [1, 7]: 52.9 µg·h/mL
- Solubility in water [2]: low

SMILES: O=C(O)CSc1nnc(Br)n1-c1ccc(C2CC2)c2ccccc12 (single isomer, unassigned) [Atropisomer 2, (+)-2-(5-bromo-4-(4-cyclopropylnaphthalen-1-yl)-4H-1,2,4-triazol-3-ylthio)acetic acid]
- M3c formation [3]: only trace levels
- % Atropisomer 1 ([4]; acetonitrile 0.25 mg/mL, t0): 1.0%
- % Atropisomer 2 ([4]; acetonitrile 0.25 mg/mL, t0): 99.0%
- % Atropisomer 1 ([4]; acetonitrile, 60° C. 4 days): 1.0%
- % Atropisomer 2 ([4]; acetonitrile, 60° C. 4 days): 99.0%
- Mean plasma concentration ([1]; 0.5 hr postdose, single oral 400 mg Compound (I) racemic mixture, adult male subjects): 108 ng/mL
- Mean plasma concentration ([1]; 1 hr postdose, single oral 400 mg Compound (I) racemic mixture, adult male subjects): 2573 ng/mL
- Mean plasma concentration ([1]; 1.5 hr postdose, single oral 400 mg Compound (I) racemic mixture, adult male subjects): 4975 ng/mL
- Mean plasma concentration ([1]; 2 hr postdose, single oral 400 mg Compound (I) racemic mixture, adult male subjects): 5765 ng/mL
- Mean plasma concentration ([1]; 3 hr postdose, single oral 400 mg Compound (I) racemic mixture, adult male subjects): 6921 ng/mL
- Mean plasma concentration ([1]; 4 hr postdose, single oral 400 mg Compound (I) racemic mixture, adult male subjects): 5577 ng/mL
- Mean plasma concentration ([1]; 5 hr postdose, single oral 400 mg Compound (I) racemic mixture, adult male subjects): 4314 ng/mL
- Mean plasma concentration ([1]; 6 hr postdose, single oral 400 mg Compound (I) racemic mixture, adult male subjects): 2322 ng/mL
- Mean plasma concentration ([1]; 8 hr postdose, single oral 400 mg Compound (I) racemic mixture, adult male subjects): 918 ng/mL
- Mean plasma concentration ([1]; 10 hr postdose, single oral 400 mg Compound (I) racemic mixture, adult male subjects): 495 ng/mL
- Mean plasma concentration ([1]; 12 hr postdose, single oral 400 mg Compound (I) racemic mixture, adult male subjects): 309 ng/mL
- Mean plasma concentration ([1]; 24 hr postdose, single oral 400 mg Compound (I) racemic mixture, adult male subjects): 63 ng/mL
- AUC0-24 [1, 8]: 33800 ng·h/mL
- Cmax [1, 8]: 8200 ng/mL
- Ae0-24 [1, 9]: 101 mg
- CLR0-24 [1, 9]: 51.6 mL/min
- AUC0-24: Area under plasma concentration-vs-time curve, from time 0 to 24 hours postdose [1, 7]: 32.7 µg·h/mL
- C24 h: Concentration 24 hours post dose [1, 7]: 50.8 ng/mL
- Cmax: Maximum observed concentration [1, 7]: 7920 ng/mL
- t1/2: Apparent terminal half-life [1, 7]: 4.67 h
- Tmax: Time of occurrence of maximum observed concentration ([1]; plasma, single oral 400 mg racemic Compound (I), human): 3.00 h
- Mean plasma concentration ([1]; time 0 hr (prior to dosing), single oral 400 mg Compound (I) racemic mixture, adult male subjects): 0 ng/mL
- Greater inhibition of URAT1 than atropisomer 1 [5]: approximately 4 fold
- % Atropisomer 1 ([6]; 60° C. 4 days): 0.4%
- % Atropisomer 2 ([6]; 60° C. 4 days): 99.6%
- % Atropisomer 1 ([6]; 100° C. 4 days): 0.6%
- % Atropisomer 2 ([6]; 100° C. 4 days): 99.4%
- % Atropisomer 1 ([6]; rt, 4 days): 0.4%
- % Atropisomer 2 ([6]; rt, 4 days): 99.6%
- % Atropisomer 1 ([6]; t0 (control)): 0.4%
- % Atropisomer 2 ([6]; t0 (control)): 99.6%

Reference: patent US20170319552A1, “ATROPISOMERS OF TRIAZOLE DERIVATIVE” (ARDEA BIOSCIENCES, INC., priority 2016, published 2017)
